Laboratory results: patent publication US8557859B2, “Immunomodulatory compositions” (Summit (Wales) Limited, priority 2003, dated 2013)

Tests used:
Spleen cells = experiment: Cytokine modulation in spleen cells: splenocyte IFN-γ production; assay type: cell-based, BALB/c mice; settings: result in words
Method: BALB/c male and female mice bred and maintained at the University of Strathclyde under conventional conditions were used at varying age.
The mouse spleen was removed aseptically and placed in a sterile petri dish containing 5 mls of complete medium (RPMI, 1% L-Glutamine, 1% Penicillin/Streptomycin and 10% foetal calf serum). Cells suspensions were prepared by using the end of a syringe and grinding the spleen through a wire mesh. The cell suspension was then centrifuged at 1000 rpm for 5 minutes. To remove the erythrocytes, the cell pellet was resuspended in Boyle's solution (Tris 0.17M & Ammonium Chloride 0.16M) and centrifuged again for 5 minutes. The pellet was then washed in medium a further two times, then resuspended in 3 mls medium. A cell count was then carried out.
All spleen cell experiments were carried out in 96-well tissue culture plates. […] Unstimulated wells contained 100 μl of cells and 100 μl of medium. The stimulated wells contained 100 μl of cells plus 50 μl of LPS at 1 μg/ml or 50 μl anti-CD3 at 0.5 μg/ml and 50 μl of medium. The remaining wells contained 100 μl cells, 50 μl of MNLP compound and either 50 μl of anti-CD3 or medium alone.
The appropriate Mabs and standards were used according to the protocol described for IL-12 (described in Example 1, above).

Dendritic cells = experiment: Induction of IL-12 secretion in dendritic cells (ELISA); assay type: cell-based, BALB/c mice; settings: dendritic cells; compounds 50 μg/ml and 20 μg/ml, 24 hrs (or 48 hrs)
Method: BALB/c male and female mice bred and maintained at the University of Strathclyde under conventional conditions were used at 8 weeks old.
Bone marrow was obtained from the femurs of mice. The femurs were washed in 70% ethanol and placed in a clean petri dish. Dendritic cell (DC) medium (2.5% granulocyte-macrophage colony-stimulating factor (GM-CSF), 10% […] foetal calf serum, 1% L-glutamine, 1% Penicillin/Streptomycin in RPMI-1640 medium) was injected into the bone marrow of the femur by a pumping action and the cells and medium were collected. 1 ml of the cells in medium was added to a 75 cm^2 flask with 15 mls of DC medium. The flasks were then incubated at 37° C., 5% CO2 to allow DC growth and development. After 5 days an additional 10 mls of DC medium was added.
After 10 days of incubation of bone marrow with GM-CSF, the dendritic cells were harvested. This process was carried out in a tissue culture hood. The contents of the flasks were poured into centrifuge tubes to ensure collection of floating DCs. Approximately 10 mls of cooled phosphate buffered saline (PBS) was added to each empty flask, the flasks gently agitated and the contents collected. […] The collected contents of the flasks were centrifuged for 5 minutes at 200 g and the pellet resuspended in 2 mls of DC medium without GM-CSF. A cell count was then carried out.
Cells were counted using a haemocytometer. Approximately 20 μl of the resuspended cells was pipetted into the chamber of the haemocytometer, the cells were adjusted to the correct cell concentration (approx. 5×10^4, and not less than 1×10^4, per well) and then plated out for assay.
The plates were incubated overnight at 37° C. with 5% CO2 and allowed to settle (harvesting stimulates them). The next day the compounds (50 μg/ml and 20 μg/ml) and controls were added then again incubated at 37° C. with 5% CO2 for 24 hrs (or 48 hrs). Harvesting and addition of the compounds was all done in a hood. The plates were then frozen to kill the cells and once defrosted the supernatant analysed as described below.
Using an enzyme linked immunosorbent assay (ELISA) IL-12 concentration in the supernatants was measured. All reagents used in this assay were from PharMingen. A 96-well flat-bottomed ELISA plate was coated with purified rat anti-mouse IL-12 (p40/p70) MAb (Cat no. 554478) at 2 μg/ml diluted in PBS pH 9.0 at 50 μl/well. The plate was then covered in cling film and incubated at 4° C. Following incubation the plate was washed 3 times in washing buffer and dried. 200 μl of blocking buffer (10% foetal calf serum in PBS pH 7.0) was added to each well then covered in cling film and incubated at 37° C. for 45 minutes. The plate was washed 3 times and dried. Recombinant mouse Il-12 standard was added at 30 μl in duplicate wells, starting at 10 ng/ml then 5, 2.5, 1.25, 0.625, 0.31, 0.156, 0.078, 0.039, 0.020, 0.010, 0.005 ng/ml. Standards were diluted in blocking buffer. The supernatant samples were added in at 50 μl/well. The plate was then covered in cling film and incubated for 2 hours at 37° C. The plate was then washed 4 times, dried and the secondary antibody added.
Biotin labelled anti-mouse IL-12 (p40/p70) MAb (Cat no. 18482D) at 1 μg/ml (diluted in blocking buffer) was added to each well at a volume of 100 μl/well. The plate was covered in cling film and incubated at 37° C. for 1 hour. The plate was then washed 5 times, dried and the conjugate added. Streptavidin-AKP (Cat no. 13043E) at 100 μl/well was added at a dilution of 1/2000 in blocking buffer followed by incubation under cling film at 37° C. for 45 minutes.
The plate was finally washed 6 times, dried and the substrate added. pNPP (Sigma) in glycine buffer at 1 mg/ml was added at 100 μl/well. The plate was then covered in tinfoil, incubated at 37° C. and checked every 30 minutes for a colour change.
The plate was then read at 405 nm using a SPECTRAmax 190 spectrometer.

β-D-galactosidase = experiment: Glycosidase inhibition, β-D-galactosidase; assay type: biochemical, Bovine liver; settings: 1 mg/ml; second galactosidase line
Method: (§1) All enzymes were purchased from Sigma, as were the appropriate p-nitrophenyl substrates. Assays were carried out in microtitre plates. Enzymes were assayed in 0.1 M citric acid/0.2M di-sodium hydrogen phosphate (McIlvaine) buffers at the optimum pH for the enzyme. All assays were carried out at 20° C. For screening assays the incubation assay consisted of 10 μl of enzyme solution, 10 μl of inhibitor solution (made up in water) and 50 μl of the appropriate 5 mM p-nitrophenyl substrate (3.57 mM final conc.) made up in McIlvaine buffer at the optimum pH for the enzyme.
(§2) The reactions were stopped with 0.4M glycine (pH 10.4) during the exponential phase of the reaction, which was determined at the beginning of the assay using blanks with water, which were incubated for a range of time periods to measure the reaction rate using 5 mM substrate solution. Endpoint absorbances were read at 405 nm with a Biorad microtitre plate reader (Benchmark). Water was substituted for the inhibitors in the blanks.

α-D-glucosidase = experiment: Glycosidase inhibition, α-D-glucosidase (Bacillus); assay type: biochemical, Bacillus stearothermophilus; settings: 1 mg/ml
Method: as §1, §2

[1] = system: N-acetyl-β-D-glucosaminidase; experiment: Glycosidase inhibition, N-acetyl-β-D-glucosaminidase; assay type: biochemical, Bovine kidney; settings: 1 mg/ml
Method: as §1, §2

Naringinase = experiment: Glycosidase inhibition, Naringinase; assay type: biochemical, Penecillium decumbens; settings: 1 mg/ml
Method: as §1, §2

B16-F10 tumour cells = experiment: Control of lung metastasis in mice; assay type: in vivo, Mice (C57/bl6); settings: 50 mg/kg s/c on days 2 and 4; lungs on day 14
Method: Mice (C57/bl6 under i/p ketamine anaesthesia) were challenged i/v (tail vein) with 5×10^4 B16-F10 tumour cells in a final volume of 100 μl per mouse on day 0. Test compounds (50 mg/kg in 200 μl sterile non-pyrogenic saline) were administered s/c (right flank) on days 2 and 4. On day 14 the mice were sacrifices and the lungs dissected and stained in Indian ink solution (150 ml bidistilled water, 30 ml India Ink, 4 drops NH4OH) for 10 minutes then fixed for at least 24 hr in Fakete's solution (90 ml 37% formaldehyde, 900 ml 70% EtOH and 45 ml glacial acetic acid). The metastases in the stained and fixed lungs could then be visualized, counted and photographed.

β-D-glucosidase = experiment: Glycosidase inhibition, β-D-glucosidase; assay type: biochemical, Almonds (Prunus sp.); settings: 1 mg/ml
Method: as §1, §2

glycosidase = settings: see U.S. Pat. No. 5,075,457; cited from earlier work
HSV-1 (SC16) = experiment: Treatment of murine HSV-1 infection: ear pinna thickness; assay type: in vivo, BALB/c mice; settings: for Ear pinna thickness (mm^−2): Group 4: via drinking water 1 mg/ml
[2] = Treatment of murine HSV-1 infection: body weight; assay type: in vivo, BALB/c mice; settings: Group 4: via drinking water 1 mg/ml

Which results are given for OC[C@H]1NC[C@H](O)[C@@H](O)[C@@H]1O [1-Deoxynojirimycin (DNJ) (21), 1-Deoxynojirimycin]?
IFN-γ secretion/production in splenocytes (Spleen cells): inhibited IFN-γ secretion/production in splenocytes; IL-12 RELEASE (Dendritic cells): No

Which “IL-12 RELEASE” value (Dendritic cells) does the source give for OC[C@H]1[C@@H](O)[C@H](O)[C@H]2[C@@H](O)CCN21 [3,7a-diepialexine (23), 3,7a-diepialexine] here?
Its value is “No”.

With OC[C@H]1[C@@H](O)[C@H](O)[C@H]2[C@H](O)[C@@H](O)CN21 [3-epi-casuarine (14), 3-epi-casuarine] as the compound, how does the “% inhibition galactosidase” value (β-D-galactosidase) read?
The value was 6%.

What about the “IL-12 RELEASE” value (Dendritic cells) of the same compound?
Its value is “Yes”.

What about the “% inhibition gluc (Bacillus)” value (α-D-glucosidase) of the same compound?
The value was 12%.

What about the “% inhibition N-acetyl-β-gluc” value [1] of the same compound?
Its value is −1%.

And the “% inhibition Naringinase” value (Naringinase)?
Its value is 21%.

What about the Metastatic morphology (B16-F10 tumour cells) of the same compound?
Its Metastatic morphology is “Metastasis restricted to apical tip of lung”.

And the “% inhibition glucosidase” value (β-D-glucosidase)?
Its value is 56%.

With OC[C@@H]1[C@@H](O)[C@H](O)[C@H]2[C@@H](O)[C@@H](O)CN21 [7-epi-casuarine (11), 7-epi-casuarine] as the compound, how does the “IL-12 RELEASE” value (Dendritic cells) read?
Its value is “Yes”.

And the “% inhibition gluc (Bacillus)” value (α-D-glucosidase)?
Its value is 5%.

And the “% inhibition Naringinase” value (Naringinase)?
Its value is −4%.

What about the “% inhibition glucosidase” value (β-D-glucosidase) of the same compound?
The value was 30%.

With OC[C@@H]1[C@@H](O)[C@H](O)[C@H]2[C@@H](O)CCN21 [7-epialexine (22), 7-epialexine] as the compound, how does the “IL-12 RELEASE” value (Dendritic cells) read?
The value was “No”.

For O[C@H]1[C@H]2[C@@H](O)CCN2C[C@H]1O [7S-epimer (6)], which “glycosidase inhibitory activity relative to swainsonine” value (glycosidase) is on record?
The value was “much weaker inhibitory activity relative to swainsonine itself”.

With O[C@H]1[C@H]2[C@H](O)CCN2C[C@H]1O [(1S,2R,7R,7aR)-1,2,7-trihydroxypyrrolizidine] as the compound, how does the “glycosidase inhibitory activity relative to swainsonine” value (glycosidase) read?
The value was “much weaker inhibitory activity relative to swainsonine itself”.

With OC[C@@H]1[C@@H](O)[C@H](O)[C@@H]2[C@@H](O)CCN21 [Alexine (1), Alexine] as the compound, how does the “IL-12 RELEASE” value (Dendritic cells) read?
Its value is “No”.

With OC[C@H]1[C@@H](O)[C@H](O)[C@H]2[C@@H](O)[C@H](O)CN21 [Compound 12, 3,6,7-triepi-casuarine] as the compound, how does the “% inhibition galactosidase” value (β-D-galactosidase) read?
Its value is 6%.

What about the “% inhibition gluc (Bacillus)” value (α-D-glucosidase) of the same compound?
The value was 9%.

And the “% inhibition N-acetyl-β-gluc” value [1]?
Its value is 19%.

And the “% inhibition Naringinase” value (Naringinase)?
Its value is 0%.

And the “% inhibition glucosidase” value (β-D-glucosidase)?
Its value is 6%.

Which “% inhibition galactosidase” value (β-D-galactosidase) does the source give for OC[C@H]1[C@@H](O)[C@H](O)[C@@H]2[C@@H](O)[C@H](O)CN21 [Compound 21, 3,6,7,7a-tetraepi-casuarine] here?
The value was 3%.

And the “% inhibition gluc (Bacillus)” value (α-D-glucosidase)?
Its value is −2%.

What about the “% inhibition N-acetyl-β-gluc” value [1] of the same compound?
Its value is 27%.

And the “% inhibition Naringinase” value (Naringinase)?
The value was 5%.

And the “% inhibition glucosidase” value (β-D-glucosidase)?
Its value is 44%.

With OC[C@H]1[C@@H](O)[C@H](O)[C@@H]2[C@@H](O)[C@@H](O)CN21 [Compound 22, 3,7,7a-triepi-casuarine] as the compound, how does the “% inhibition gluc (Bacillus)” value (α-D-glucosidase) read?
Its value is 87%.

And the “% inhibition Naringinase” value (Naringinase)?
The value was 10%.

For OCC1O[C@H](O[C@H]2CN3[C@@H]([C@@H](O)[C@H](O)[C@H]3CO)[C@@H]2O)C(O)[C@@H](O)[C@@H]1O (stereo partly drawn) [casuarine-6-α-D-glucopyranose (9), casuarine-6-α-D-glucopyranose], which “IL-12 RELEASE” value (Dendritic cells) is on record?
Its value is “Yes”.

What does the source list for CC(=O)OCC(CCn1cnc2cnc(N)nc21)COC(C)=O [famciclovir, reference compound]?
Ear pinna thickness (mm^−2) (HSV-1 (SC16); day 0): 0 mm^−2; Ear pinna thickness (mm^−2) (HSV-1 (SC16); day 1): 0 mm^−2; Ear pinna thickness (mm^−2) (HSV-1 (SC16); day 2): 0 mm^−2; Ear pinna thickness (mm^−2) (HSV-1 (SC16); day 3): 7 mm^−2; Ear pinna thickness (mm^−2) (HSV-1 (SC16); day 4): 7 mm^−2; Ear pinna thickness (mm^−2) (HSV-1 (SC16); day 5): 0 mm^−2; Ear pinna thickness (mm^−2) (HSV-1 (SC16); day 6): 4 mm^−2; Ear pinna thickness (mm^−2) (HSV-1 (SC16); day 7): 0 mm^−2; Ear pinna thickness (mm^−2) (HSV-1 (SC16); day 8): 2.9 mm^−2; Ear pinna thickness (mm^−2) (HSV-1 (SC16); day 9): 2.9 mm^−2; Ear pinna thickness (mm^−2) (HSV-1 (SC16); day 11): 2.9 mm^−2; Ear pinna thickness (mm^−2) (HSV-1 (SC16); day −2): 0 mm^−2; ear thickness response (HSV-1 (SC16); result in words, casuarine at both doses (15 and 150 mg/kg i.p.), famciclovir via drinking water 1 mg/ml): almost completely negated the ear thickness response; Group mean weight ([2]; day 0): 15.1 g; Weight (% change) ([2]; day 0): 9%; Group mean weight ([2]; day 1): 15.6 g; Weight (% change) ([2]; day 1): 13%; Group mean weight ([2]; day 2): 15.8 g; Weight (% change) ([2]; day 2): 14.5%; Group mean weight ([2]; day 3): 16.4 g; Weight (% change) ([2]; day 3): 18.8%; Group mean weight ([2]; day 4): 16.3 g; Weight (% change) ([2]; day 4): 18.1%; Group mean weight ([2]; day 5): 16.7 g; Weight (% change) ([2]; day 5): 21%; Group mean weight ([2]; day 6): 17.1 g; Weight (% change) ([2]; day 6): 23.9%; Group mean weight ([2]; day 7): 16.7 g; Weight (% change) ([2]; day 7): 21%; Group mean weight ([2]; day 8): 17.1 g; Weight (% change) ([2]; day 8): 23.9%; Group mean weight ([2]; day 9): 17.1 g; Group mean weight ([2]; day 10): 17.2 g; Group mean weight ([2]; day 11): 17.1 g; Group mean weight ([2]; day 12): 17.2 g; Group mean weight ([2]; day −2): 13.8 g; Weight (% change) ([2]; day −2): 0%
